Assay results as given in patent US8518973B2, “Compounds having 4-pyridylalkylthio group as a substituent” (Santen Pharmaceutical Co., Ltd., priority 2003, dated 2013).

Each compound was assayed on VEGF-induced HUVEC growth (assay: VEGF-induced HUVEC growth reaction evaluation system (cell growth inhibitory action test)). Conditions: Homo sapiens, 72 h, 20 μg/ml test compound solution added 5 μl per well (100 μl), VEGF solution 400 ng/ml 5 μl per well, three days, absorbance at 450 nm, read-out: Cell growth inhibition rate (%).
Format: cell-based
Procedure: Cell growth inhibitory action tests were carried out using a VEGF-induced HUVEC growth reaction evaluation system (HUVEC stands for human umbilical vein endothelial cells), which is one of widely-used methods of evaluating in vitro angiogenesis inhibitory effects of drugs.
As one of widely-used methods of evaluating angiogenesis inhibitory effects of drugs, a cell growth inhibitory action test using a VEGF-induced HUVEC growth reaction evaluation system was reported in Cancer Res., 59, 99-106(1999). According to the method described in the above-mentioned literature, cell growth inhibitory action tests of the present compounds were carried out, their cell growth inhibition rates were calculated, and angiogenesis inhibitory effects of the present compounds were evaluated using the obtained rates as indexes.
Each test compound was dissolved in dimethyl sulfoxide (hereinafter abbreviated as “DMSO”), and the obtained solution was diluted with commercially available phosphoric acid buffer solution (hereinafter abbreviated as “PBS”) to prepare a 20 μg/ml test compound solution.
HUVEC was suspended in a 0.5% fetal bovine serum (hereinafter abbreviated as “FBS”)-containing F12K medium to prepare a 2×10^4 cells/ml HUVEC suspension.
VEGF was dissolved in 0.1% bovine serum albumin-containing PBS, and the obtained solution was diluted with the 0.5% FBS-containing F12K medium to prepare a 400 ng/ml VEGF solution.
• 1) The HUVEC suspension was inoculated in each amount of 100 μl into each well of a 96-well plate coated with I type collagen (2×10^3 cells per well). • 2) One day after inoculation, the test compound solution was added in an amount of 5 μl per well. • 3) One hour after adding the test compound solution, the VEGF solution was added in an amount of 5 μl per well. • 4) Three days after adding the VEGF solution, cell counting kit-8(Dojin Chemical Co., Ltd.) was added in an amount of 10 μl per well. • 5) After three hours, the above-mentioned plate was attached to an absorptiometer (multi label counter ARVO), and absorbance at 450 nm of each well suspension (hereinafter referred to as “test compound suspension”) was measured. • 6) A test was carried out in the same manner as in 1) to 5) except that 1.0% DMSO was used instead of the test compound solution.
Incubation was carried out under conditions of 37° C., 5% carbon dioxide and 95% air in an incubator throughout the above-mentioned test steps.
Cell growth inhibition rates, which are indexes of angiogenesis inhibitory effects, were calculated by the following calculation equation.
`Cc1ccc(NC(=O)c2sccc2SCc2ccncc2)cc1C` [1-253, N-(3,4-Dimethylphenyl)-3-(4-pyridylmethylthio)thiophene-2-carboxamide] gave an inhibition at 20 µg/mL (stock) of 100%. In the case of `O=C(Nc1ccc(F)cc1F)c1cccnc1SCc1ccncc1` [1-70, N-(2,4-Difluorophenyl)-2-(4-pyridylmethylthio)pyridine-3-carboxamide], the inhibition at 20 µg/mL (stock) is reported as 58%. With `Cc1cc(NC(=O)c2ccsc2SCc2ccncc2)ccc1Br` [1-289, N-(4-Bromo-3-methylphenyl)-2-(4-pyridylmethylthio)thiophene-3-carboxamide] the inhibition at 20 µg/mL (stock) was 100%. `O=C(Nc1cc2ccccc2cn1)c1sccc1SCc1ccncc1` [1-274, N-(3-Isoquinolyl)-3-(4-pyridylmethylthio)thiophene-2-carboxamide] gave an inhibition at 20 µg/mL (stock) of 95%. For `CC(C)c1cccc(NC(=O)c2ccccc2SCc2ccncc2)c1` [1-92, N-(3-Isopropylphenyl)-2-(4-pyridylmethylthio)benzamide], the inhibition at 20 µg/mL (stock) was 100%. `CSc1cc(CSc2ncccc2C(=O)Nc2ccc(Cl)cc2)ccn1` [1-232, N-(4-Chlorophenyl)-2-(2-methylthiopyridin-4-ylmethylthio)pyridine-3-carboxamide] showed an inhibition at 20 µg/mL (stock) of 75%. For `O=C(Nc1cccc(Cl)c1)c1ccccc1SCc1ccncc1` [1-90, N-(3-Chlorophenyl)-2-(4-pyridylmethylthio)benzamide], the inhibition at 20 µg/mL (stock) was 100%. `O=C(Nc1ccc(F)c(C(F)(F)F)c1)c1cccnc1SCc1ccncc1` [1-77, N-(4-Fluoro-3-trifluoromethylphenyl)-2-(4-pyridylmethylthio)pyridine-3-carboxamide] showed an inhibition at 20 µg/mL (stock) of 100%. `COCCNC(=O)c1cc(CSc2ncccc2C(=O)Nc2cc(C)cc(C)c2)ccn1` [7-4, N-(3,5-Dimethylphenyl)-2-[2-(2-methoxyethylaminocarbonyl)pyridin-4-ylmethylthio]pyridine-3-carboxamide] gave an inhibition at 20 µg/mL (stock) of 100%. `O=C(Nc1cccc(Cl)c1)c1sccc1SCc1ccncc1` [1-249, N-(3 Chlorophenyl)3-(4-pyridylmethylthio)thiophene-2-carboxamide] showed an inhibition at 20 µg/mL (stock) of 100%. Compound `CCOC(=O)Cc1ccc(NC(=O)c2cccnc2SCc2ccncc2)cc1` [1-61, N-(4-Ethoxycarbonylmethylphenyl)-2-(4-pyridylmethylthio)pyridine-3-carboxamide] has an inhibition at 20 µg/mL (stock) of 65%. `CSc1cc(CSc2ncccc2C(=O)Nc2cc(C)cc(C)c2)ccn1` [1-231, N-(3,5-Dimethylphenyl)-2-(2-methylthiopyridin-4-ylmethylthio)pyridine-3-carboxamide] was tested, and the inhibition at 20 µg/mL (stock) was 100%. Compound `O=C(Nc1ccc2c(c1)CCC2)c1cccnc1SCc1ccnc(F)c1` [1-215, 2-(2-Fluoropyridin-4-ylmethylthio)-N-(5-indanyl)pyridine-3-carboxamide] has an inhibition at 20 µg/mL (stock) of 100%. With `O=C(Nc1ccc(OC(F)(F)F)cc1)c1cccnc1SCc1ccnc(F)c1` [1-214, 2-(2-Fluoropyridin-4-ylmethylthio)-N-(4-trifluoromethoxyphenyl)pyridine-3-carboxamide] the inhibition at 20 µg/mL (stock) was 92%. `Cc1cc(C)cc(NC(=O)c2cccnc2SCc2ccnc(C(=O)O)c2)c1` [6-1, 2-(2-Carboxypyridin-4-ylmethylthio)-N-(3,5-dimethylphenyl)pyridine-3-carboxamide] showed an inhibition at 20 µg/mL (stock) of 72%. Compound `COc1cc(OC)c(NC(=O)c2ccccc2SCc2ccncc2)cc1Cl` [1-102, N-(5-Chloro-2,4-dimethoxyphenl)-2-(4-pyridylmethylthio)benzamide] has an inhibition at 20 µg/mL (stock) of 55%. Work on `COc1cc(CSc2ncccc2C(=O)Nc2cc(C)cc(C)c2)ccn1` [1-300, N-(3,5-Dimethylphenyl)-2-(2-methoxypyridin-4-ylmethylthio)pyridine-3-carboxamide] yielded an inhibition at 20 µg/mL (stock) of 100%. `CC(C)(C)c1ccc(NC(=O)c2sccc2SCc2ccncc2)cc1` [1-256, N-(4-tert-Butylphenyl)-3-(4-pyridylmethylthio)thiophene-2-carboxamide] gave an inhibition at 20 µg/mL (stock) of 100%.
